Reference: patent publication US20240316051A1, “A PHARMACEUTICAL COMBINATION AND USE THEREOF” (Ascentage Pharma (Suzhou) Co., Ltd., priority 2021, published 2024)

Legend:
EED (1-441)-His protein = target: T1, EED (1-441)-His protein (Homo sapiens, UniProt O75530); test: EED-H3K27Me3 peptide competition binding assay by AlphaScreen; conditions: Table 4A, read-out: Alpha screen
T1 construct: 20 nM EED (1-441)-His protein
How it was run: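 Readout was AlphaScreen emission at 615 nm after 680 nm excitation, with 10 μg/ml final each of streptavidin donor and nickel chelate acceptor beads, 1 h at RT in the dark. Beforehand, compound met the His-tagged EED(1-441) for 15 min and then biotinylated H3K27Me3(19-33) peptide for 30 min; both were added as 20 nM solutions, buffer 25 mM HEPES pH 8, Tween-20, BSA. Percent activity left was fitted to give IC50.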

[1] = system: malignant pleural mesothelioma (MPM) PDX model (FGFR1high; BAP1mut); test: Subcutaneous malignant pleural mesothelioma (MPM) PDX model (Example 20); format: in vivo, mice; conditions: Compound 73 100 mg/kg, Compound C 50 mg/kg, each orally every other day, 76 days; alone or combined
Description: A subcutaneous xenograft tumor model of human tumor immunodeficient mice was established by cell inoculation: tumor cells in logarithmic growth phase were collected, counted, resuspended in 1×PBS, and the cell suspension concentration was adjusted to 2.5-5×10^7/mL. The tumor cells were inoculated subcutaneously in the right side of immunodeficient mice with a 1 ml syringe ([…]), 5-10×10^6/0.2 mL/mouse. All animal experiments were strictly in accordance with the specifications for the use and management of experimental animals in GenePharma Co., Ltd. and Suzhou Ascentage Pharma Co., Ltd. The calculation of relevant parameters refers to the Chinese NMPA “Guidelines for Non-Clinical Research Techniques of Cytotoxic Anti-tumor Drugs”.
Animal body weight and tumor size were measured twice weekly during the experiment. The state of the animal and the presence or absence of death were observed every day. The growth of tumor and the effects of treatment on normal behavior of animals were monitored routinely, specifically involving experimental animal activity, feeding and drinking, weight gain or loss, eyes, clothing hair and other abnormalities. The deaths and clinical symptoms observed during the experiment were recorded in the raw data. All operations for administration and measurement of mouse body weight and tumor volume were performed in a clean bench. According to the requirements of the experimental protocol, after the end of the last administration, plasma and tumor tissues were collected, weighed and photographed. The plasma and tumor samples were frozen at −80° C. for ready-to-use.
Tumor volume (TV) is calculated as: TV=a×b^2/2, wherein a and b represent the length and width of the tumor to be measured, respectively.
The relative tumor volume (RTV) is calculated as: RTV=Vt/V1, wherein V1 is the tumor volume at the start of grouping and administration, and Vt is the tumor volume measured on the t day after administration. […]
Change of body weight (%)=(measured body weight-body weight at the start of grouping)/body weight at the start of grouping×100%. […]
According to the description by Clarke R., Issues in experimental design and endpoint analysis in the study of experimental cytotoxic agents in vivo in breast cancer and other models [J]. Breast Cancer Research & Treatment, 1997, 46(2-3): 255-278, synergy analysis was evaluated using the following formula: synergy factor=((A/C)×(B/C))/(AB/C); A=RTV value of drug A alone group; B=RTV value of drug B alone group; C=RTV value of the solvent control group, and AB=RTV value of the A and B combination group. […]

T1 sequence (O75530 whole entry): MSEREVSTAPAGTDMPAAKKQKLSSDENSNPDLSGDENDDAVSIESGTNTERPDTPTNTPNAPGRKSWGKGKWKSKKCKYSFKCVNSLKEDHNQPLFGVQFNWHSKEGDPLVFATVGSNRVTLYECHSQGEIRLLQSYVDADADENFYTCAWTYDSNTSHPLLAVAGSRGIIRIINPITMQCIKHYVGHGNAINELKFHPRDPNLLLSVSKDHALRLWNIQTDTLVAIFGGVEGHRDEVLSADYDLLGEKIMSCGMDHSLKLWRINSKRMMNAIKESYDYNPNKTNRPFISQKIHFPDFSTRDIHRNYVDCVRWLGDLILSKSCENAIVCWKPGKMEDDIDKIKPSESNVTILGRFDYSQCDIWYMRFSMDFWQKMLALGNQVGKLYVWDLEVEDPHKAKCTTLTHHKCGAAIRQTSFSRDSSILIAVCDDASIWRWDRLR

IC50 (EED (1-441)-His protein): 0.5 nM
SMILES: CC(C)N1Cc2cc(C(F)(F)F)ncc2-c2cnc(NCc3c(F)ccc4c3CCO4)n3cnc(c23)C1=O [Compound 73, 12-(((5-fluoro-2,3-dihydrobenzofuran-4-yl)methyl)amino)-4-isopropyl-7-(trifluoromethyl)-4,5-dihydro-3H-2,4,8,11,12a-pentaazabenzo[4,5]cycloocta[1,2,3-cd]inden-3-one]
RTV @ D 76 [1]: 3.06
T/C (%) @ D 76 [1]: 53%
